Patent publication US20090047287A1, “MODULATION OF BONE FORMATION” (Wyeth, priority 2006, published 2009)

B1: purified recombinant GST-tagged cytosolic domain of human Ror2 (Invitrogen) (protein)
chain: VCMCRNKQKASASTPQRRQLMASPSQDMEMPLINQHKQAKLKEISLSAVRFMEELGEDRFGKVYKGHLFGPAPGEQTQAVAIKTLKDKAEGPLREEFRHEAMLRARLQHPNVVCLLGVVTKDQPLSMIFSYCSHGDLHEFLVMRSPHSDVGSTDDDRTVKSALEPPDFVHLVAQIAAGMEYLSSHHVVHKDLATRNVLVYDKLNVKISDLGLFREVYAADYYKLLGNSLLPIRWMAPEAIMYGKFSIDSDIWSYGVVLWEVFSYGLQPYCGYSNQDVVEMIRNRQVLPCPDDCPAWVYALMIECWNEFPSRRPRFKDIHSRLRAWGNLSNYNSSAQTSGASNTTQTSSLSTSPVSNVSNARYVGPKQKAPPFPQPQFIPMKGQIRPMVPPPQLYVPVNGYQPVPAYGAYLPNFYPVQIPMQMAPQQVPPQMVPKPSSHHSGSGSTSTGYVTTAPSNTSMADRAALLSEGADDTQNAPEDGAQSTVQEAEEEEEGSVPETELLGDCDTLQVDEAQVQLEA

What was measured:
[1] = system: mouse calvarial bones; assay: Ex vivo mouse calvarial culture with shRNA adenovirus and antibody, histomorphometry (Bioquant); format: cell-based; conditions: mouse calvariae, 7 days; shRNA 5×10^7 viral particles/ml, antibody 12 μg/ml; vs scrambled shRNA and IgG
Description: We next tested if in vitro effects of Ror2 activation and 14-3-3β inhibition translate into increased bone formation in ex vivo organ cultures. Calvarial bones of 4 days old mouse littermates were infected with adenoviruses containing scrambled shRNA or 14-3-3β-specific shRNA at 5×10^7 viral particles/ml; and 48 h later were treated with 12 μg/ml of anti-Ror2 antibody or non-specific IgG in presence of 15 μg/ml calcein. After 7 days of culture with adenoviruses and antibodies, the bones were stained with hematoxylin-eosin and consistent 300 μm stretches (450 μm away from frontal sutures) were subjected to histomorphometric analysis using Bioquant-NOVA MR 5.50.8 (Nashville, Tenn.). Under control conditions of scrambled shRNA infection and IgG treatment, 600 μm length of calvaria contained 9394±1333 μm^2 of bone area and 39.5±7.4 osteoblasts.

[2] = molecular target: T1, Ror2-TrkB chimera (Homo sapiens, UniProt Q01974, T245A); assay: Ror2-TrkB chimera CRE-luciferase reporter assay in HEK293 cells; format: cell-based; conditions: HEK-CRE cells expressing Ror2-TrkB chimera, 24 h, compared to non-specific IgG
T1 construct: extracellular domain of Ror2 (aa 1-407) fused to the transmembrane and intracellular domains of TrkB (aa 432-822); expressed in transfected cells
T1 sequence (Q01974 with tags, fused parts or gaps T245A): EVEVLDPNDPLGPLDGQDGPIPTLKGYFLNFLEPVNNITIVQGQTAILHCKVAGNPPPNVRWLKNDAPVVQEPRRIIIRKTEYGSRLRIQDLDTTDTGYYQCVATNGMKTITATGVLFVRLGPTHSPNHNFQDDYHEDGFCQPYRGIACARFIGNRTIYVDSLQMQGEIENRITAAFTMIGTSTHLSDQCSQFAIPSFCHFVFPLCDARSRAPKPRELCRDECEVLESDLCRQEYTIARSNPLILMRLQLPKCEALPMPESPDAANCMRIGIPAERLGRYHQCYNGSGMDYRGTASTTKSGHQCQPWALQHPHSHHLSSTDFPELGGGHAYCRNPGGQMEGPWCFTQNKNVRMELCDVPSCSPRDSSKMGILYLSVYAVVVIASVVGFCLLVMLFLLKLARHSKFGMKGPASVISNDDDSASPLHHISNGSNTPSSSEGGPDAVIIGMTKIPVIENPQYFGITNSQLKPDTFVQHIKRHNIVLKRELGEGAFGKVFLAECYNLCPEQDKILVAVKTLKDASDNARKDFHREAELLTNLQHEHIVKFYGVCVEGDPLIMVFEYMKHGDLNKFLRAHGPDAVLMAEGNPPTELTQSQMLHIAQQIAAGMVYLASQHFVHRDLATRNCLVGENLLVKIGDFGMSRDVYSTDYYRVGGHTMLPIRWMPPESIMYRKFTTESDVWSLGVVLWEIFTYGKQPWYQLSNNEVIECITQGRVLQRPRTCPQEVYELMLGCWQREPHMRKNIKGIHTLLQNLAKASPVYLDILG
Text: FIG. 12 illustrates generation of a high throughput, high sensitivity assay for Ror2 activity. A. Schematic representation of the assay that utilizes the signaling pathway of the TrkB receptor. The TrkB receptor is activated by ligand-induced homo-dimerization that causes phosphorylation of Erk and stimulation of the cAMP response element (CRE) in the promoter of target genes. We generated a chimeric receptor consisting of the extracellular domain of Ror2 (aa 1-407) fused to the transmembrane and intracellular domains of TrkB (aa 432-822). When using this chimera, agents that cause Ror2 dimerization activate TrkB signaling pathway and this activation can be assessed by a CRE promoter-luciferase reporter assay. B. HEK293 cells were stably transfected with the Ror2-TrkB chimera and CRE-luciferase plasmids, treated with the indicated amounts of the anti-Ror2 antibody or non-specific IgG for 24 h, and luciferase activity was assessed. Luciferase activity observed upon treatment with the non-specific IgG was set at 1. […]
The TrkB receptor is activated by ligand-induced homo-dimerization that causes phosphorylation of Erk and stimulation of the cAMP response element (CRE) in the promoter of target genes. […] Colonies were grown at 37 C with 350 μg/ml hygromycin and levels of Ror2-TrkB expression were assessed by western immunoblotting and immunocytochemistry. […]

[3] = system: human mesenchymal stem cells (hMSC); assay: Mineralized matrix formation in hMSC, alizarin red-S staining; format: cell-based
Description: Human MSC were seeded at 6,000/cm^2 in 12-, or 6-well plates and allowed to adhere and proliferate overnight. Cells were infected for 24 h in 0.4 ml/cm^2 MSCGM using Ror2, Ror2KD, or β-gal adenoviruses at multiplicity of infection (MOI)=750 in presence of hCAR (MOI=750) to improve infection efficiency. After 24 h, cells were washed once in PBS and MSCGM, MSCGM supplemented with 0.05 mM ascorbic acid and 10 mM β-glycerophosphate, or MSCGM containing adipogenic supplements (PT-3004, Cambrex) were added. Where indicated, 100 nM dexamethasone (dex) and/or the indicated antibodies were added to the medium. For shRNA infection, cells were seeded at 6,000/cm^2 in 12- or 6-well plates and allowed to adhere and proliferate for 3 days. Cells were infected for 72 h in 0.4 ml/cm^2 MSCGM using adenoviruses coding for Ror2-specific shRNA or EGFP-specific shRNA at 4,000 viral particles per cell (based on the original seeding density) in presence of hCAR (MOI=750). After 72 h, cells were washed once in PBS, and MSCGM or MSCGM supplemented with 0.05 mM ascorbic acid, 10 mM β-glycerophosphate were added. Where indicated 100 nM dex and/or specific antibodies were added. Every 5 days, either the entire medium or ½ of it was replaced with fresh medium.
Formation of mineralized nodules by hMSC was determined on 12-well plates by alizarin red-S histochemical staining. The cells and matrix were fixed at RT for 1 h with 70% (v/v) ethanol, washed with de-ionized water and stained for 10 min at RT with 40 mM alizarin red-S, pH 4.2. The stained matrix was washed with de-ionized water and photographed. To quantify the level of alizarin red-S staining, the dye was eluted with 1 ml/well of 10% (w/v) Cetylpyridinium Chloride. Alizarin red-S in the eluted samples was quantified (versus a standard curve of 0-800 μM dye) at 562 nm with a microplate reader.

[4] = system: 14-3-3β protein; assay: Ror2 activation in U2OS cells, phosphotyrosine precipitation, 14-3-3β blot; format: cell-based, human; conditions: untransfected U2OS cells, antibody 1 h at 37° C., vs IgG control
Description: (§1) Cells were solubilized in lysis buffer (150 mM NaCl, 50 mM Tris-HCl, pH 7.5, 1 mM EDTA, 1% Triton X100) supplemented with protease and phosphatase inhibitor cocktails (Sigma) and the extracts were clarified by centrifugation at 10,000×g for 10 min at 4° C. For Flag immunoprecipitation, 1 mg of total cell lysates was incubated with 30 μl of M2 Flag affinity agarose (Sigma) for 1 h with rotation at 4° C. The beads were collected by centrifugation and washed three times in lysis buffer containing 350 mM NaCl and three times in lysis buffer. For 14-3-3β precipitation, 15 μl of 14-3-3β antibody was incubated with 30 μl of protein A sepharose in 1 ml of lysis buffer overnight at 4° C. and the beads were collected by centrifugation and washed in lysis buffer prior to addition of 1 mg of total cell lysates. The binding reaction was carried out for 2 h at 4° C. with mild rotation and the beads were collected and washed as for Flag precipitation. For phosphotyrosine precipitation, 1 mg (for detecting over-expressed proteins) or 1.5 mg (for detecting endogenous proteins) of cellular extract was added to 100 μl of G410 beads and allowed to attach for 3 h at 4° C. At this time, P-Tyr-100 immobilized antibody (100 μl) was added to the mix for an additional 3 h. All beads were collected by centrifugation and washed as for Flag precipitation. […]

[5] = molecular target: T2, Ror2 receptor (Homo sapiens, UniProt Q01974); assay: Ror2 dimerization in U2OS cells, Flag/His-tagged Ror2 co-immunoprecipitation; format: cell-based; conditions: antibody 1 h at 37 C, vs non-specific goat IgG
T2 construct: expressed in transfected cells; host or cells: U2OS
T2 sequence (Q01974 34-943): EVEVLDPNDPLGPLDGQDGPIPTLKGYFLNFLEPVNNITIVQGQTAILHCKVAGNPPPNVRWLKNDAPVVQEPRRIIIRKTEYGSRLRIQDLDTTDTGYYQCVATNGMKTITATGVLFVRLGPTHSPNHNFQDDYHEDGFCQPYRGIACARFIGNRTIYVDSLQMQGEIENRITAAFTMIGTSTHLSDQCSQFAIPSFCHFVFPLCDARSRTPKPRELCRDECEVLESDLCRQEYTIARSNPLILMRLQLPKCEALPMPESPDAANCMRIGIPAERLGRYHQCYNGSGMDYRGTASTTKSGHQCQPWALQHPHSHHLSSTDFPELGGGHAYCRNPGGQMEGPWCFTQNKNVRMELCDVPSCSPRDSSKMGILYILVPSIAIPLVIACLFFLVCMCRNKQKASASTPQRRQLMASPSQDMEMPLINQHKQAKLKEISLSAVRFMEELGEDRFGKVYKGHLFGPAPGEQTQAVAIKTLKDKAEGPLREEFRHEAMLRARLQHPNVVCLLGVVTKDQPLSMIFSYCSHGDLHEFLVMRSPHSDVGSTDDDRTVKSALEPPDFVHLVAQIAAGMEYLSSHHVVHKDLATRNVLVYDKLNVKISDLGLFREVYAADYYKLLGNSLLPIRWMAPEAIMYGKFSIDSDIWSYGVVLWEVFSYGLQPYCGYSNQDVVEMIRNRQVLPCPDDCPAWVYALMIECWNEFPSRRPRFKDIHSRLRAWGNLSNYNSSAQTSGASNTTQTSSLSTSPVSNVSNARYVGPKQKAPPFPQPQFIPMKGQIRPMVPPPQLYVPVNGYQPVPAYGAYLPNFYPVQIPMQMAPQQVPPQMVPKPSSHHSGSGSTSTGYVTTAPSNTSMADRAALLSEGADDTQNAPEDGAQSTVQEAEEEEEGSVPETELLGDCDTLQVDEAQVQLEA
T2 sequence (Q01974 34-943): as above
Description: For Ror2 plasmid transfections, U2OS cells were seeded at ˜80% confluent density and transfected 24 h later with 11 μg of total plasmid DNA per 19.6 cm^2 using Fugene6 transfection reagent (Roche Applied Science, Indianapolis, Ind.) per manufacturer's instructions. For siRNA transfections, U2OS cells were plated on 6-well plates at 52,000 cells/cm^2 and transfected 24 h later with 25 nM of Ror2 siRNA or non-specific siRNA (both from Dharmacon Inc., Lafayette, Colo.) using 10 μl of Lipofectamine 2000 reagent per manufacturer's instructions.
Cells were solubilized in lysis buffer (150 mM NaCl, 50 mM Tris-HCl, pH 7.5, 1 mM EDTA, 1% Triton X100) supplemented with protease and phosphatase inhibitor cocktails (Sigma) and the extracts were clarified by centrifugation at 10,000×g for 10 min at 4° C. For Flag immunoprecipitation, 1 mg of total cell lysates was incubated with 30 μl of M2 Flag affinity agarose (Sigma) for 1 h with rotation at 4° C. The beads were collected by centrifugation and washed three times in lysis buffer containing 350 mM NaCl and three times in lysis buffer. For 14-3-3β precipitation, 15 μl of 14-3-3β antibody was incubated with 30 μl of protein A sepharose in 1 ml of lysis buffer overnight at 4° C. and the beads were collected by centrifugation and washed in lysis buffer prior to addition of 1 mg of total cell lysates. […]

[6] = molecular target: T3, Ror2 tyrosine kinase (Homo sapiens, UniProt Q01974); assay: Ror2 activation in U2OS cells, phosphotyrosine precipitation, Ror2 blot; format: cell-based; conditions: untransfected U2OS cells, antibody 1 h at 37° C., vs IgG control
T3 construct: western immunoblotting for the endogenous Ror2 protein; endogenous in cells; host or cells: U2OS
T3 sequence (Q01974 34-943): as above
Description: as §1

[7] = molecular target: T4, purified recombinant human GST-14-3-3β (Biomol), P31946
T4 chain: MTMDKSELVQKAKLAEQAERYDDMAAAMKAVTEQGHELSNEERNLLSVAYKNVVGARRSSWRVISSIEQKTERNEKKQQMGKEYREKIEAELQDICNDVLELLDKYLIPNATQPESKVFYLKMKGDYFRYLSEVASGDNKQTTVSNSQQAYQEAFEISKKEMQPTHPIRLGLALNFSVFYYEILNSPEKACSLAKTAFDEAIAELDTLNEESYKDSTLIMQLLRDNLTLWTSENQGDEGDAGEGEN

Row | Molecule | increase in the osteoblast number [1] | increase in the total bone area [1] | luciferase activity (CRE promoter) [2] | antibody effect on matrix mineralization when Ror2 expression is inhibited ([3]; hMSC infected with Ror2-specific shRNA, 100 nM dex, 9 days) | calcified matrix formation in absence of dex ([3]; hMSC infected with Ror2 adenovirus, no dex, 19 days, vs non-specific goat IgG) | extent of calcified matrix formation (alizarin red-S) ([3]; hMSC, osteogenic cocktail with 100 nM dex, increasing amounts of IgG, 9 days) | phosphorylation of 14-3-3β protein [4] | Ror2 homodimer formation (His-tagged with Flag-tagged Ror2) [5] | autophosphorylation of the Ror2 kinase [6] | in vitro kinase assay, immunoblot with phosphotyrosine antibody [7]
1 | anti-Ror2 antibody: Ror2-specific goat polyclonal IgG raised against the extracellular domain of human Ror2, R&D Systems, AF2064 | 85% | 50% | robust dose-dependent increase | disappeared | induced calcified matrix formation | dose-dependently increased | phosphorylation | strongly enhanced | significant autophosphorylation | 
2 | B1 |  |  |  |  |  |  |  |  |  | Ror2c phosphorylated both 14-3-3 β and itself
